“Also recorded” adds a separate entry of the source.

Data set [1] can be described thus: Nanolitre osmometry of carbohydrate solutions (Experiment 2). Conditions: 10 mg/mL solutions in double-distilled water. On the procedure:
Nanoliter osmometry was performed using a nanoliter osmometer (Clifton Technical Physics, Hartford, N.Y.) as described by Chakrabartty and Hew (Chakrabartty, A.; Hew, C. L. Eur. J. Biochem. 1991, 202, 1057-1063). All measurements were made in doubly distilled water. Ice crystal morphology was observed through a Leitz compound microscope equipped with an Olympus 20× (infinity corrected) objective, Leitz Periplan 32× photo eyepiece and a Hitachi KP-M2U CCD camera connected to a Toshiba MV13K1 TV/VCR system. Still images were captured directly using a Nikon CoolPix digital camera.
It has been proposed that the optimal distance between hydroxyl groups is 4.2-4.5 Angstroms (Baruch, E.; Belostotskii, A. M.; Mastai, Y. J. Mol. Struct. 2008, 874, 170).

Data set [2] in a line: RI assay, splat cooling with domain recognition software (Experiment 2). On the procedure:
Sample analysis for RI activity was performed using the “splat cooling” method as described previously (Knight, C. A.; Hallet, J.; DeVries, A. L. Cryobiology, 1998, 25, 55). In this method, the analyte is dissolved in phosphate buffered saline (PBS) solution and a 10 μL drop of this solution is dropped from a micropipette through a two metre high plastic tube (10 cm in diameter) onto a block of polished aluminum pre-cooled to approximately −80° C. The droplet freezes instantly on the polished aluminum block and is approximately 1 cm in diameter and 20 μm thick. This wafer is then carefully removed from the surface of the block and transferred to a cryostage held at −6.4° C. for annealing. After a period of 30 minutes, the wafer was photographed between crossed polarizing filters using a digital camera (Nikon CoolPix 5000) fitted to the microscope. A total of three images are taken from each wafer. During flash freezing, ice crystals spontaneously nucleate from the super-cooled solution. These initial crystals are relatively homogenous in size and quite small. During the annealing cycle recrystallization occurs, resulting in a dramatic increase in ice crystal size. A quantitative measure of the difference in recrystallization inhibition of two compounds X and Y is the difference in the dynamics of the ice crystal size distribution. […] This processing employed of the Microsoft Windows Graphical User Interface to allow a user to visually demarcate and store the vertices of ice domains in a digital micrograph. […] To eliminate the need to fully process each micrograph, an algorithm was developed to randomly display a number of x/y locations. The algorithm made use of a built-in pseudo random number generator (rand(x)) and was written so that no two locations were closer than 1/10th the field of view of the micrograph. The formula for the area of a polygon that is not self-intersecting and contains no holes is then given by Eq.2,
where N is the number of vertices, and x0, y0 to xN−1, yN−1 are the vertices circumventing the polygon in a clockwise direction. The point x0, y0 is assumed to be equivalent to the point xN, yN. The software was written in C using Microsoft Visual Studio 6.0 on a Pentium class personal computer running Microsoft Windows 2000 or XP. All data was plotted and analyzed using Microsoft Excel.

The conditions of data set [3]: isentropic, value x10^4, aqueous solution at 298 K; cited from earlier work.
The nature of data set [4]: Recrystallization inhibition (RI) assay, mean largest grain size (Experiment 1). Conditions: carbohydrate concentration corrected to 0.021 mmole/L (FIG. 3). On the procedure:
All measurements were performed in triplicate. The Y-axis depicts the mean largest grain size (MLGS in mm^2) of ice crystals measured directly from photographs of the sample, as described previously (Raymond, J. A. D., A. L., Proc. Natl. Acad. Sci. USA 1977, 74, 2589).
All samples were compared to a solution of phosphate buffered saline (PBS) which was used as a negative control and a solution of AFGP 8 isolated from Gagus ogac (generously provided by AquaBounty Farms). Each solution was tested at three different concentrations in order to rule out any non-specific RI effects. The Y-axis in FIG. 5 represents mean largest grain size (MLGS) where small bars are representative of potent recrystallization-inhibition activity.
The Y-axis in FIG. 7 represents the mean largest grain size (MLGS) which is an average ice crystal surface area for each sample.

The nature of data set [5]: Thermal hysteresis (TH), microcapilliary method.
The nature of data set [6]: Nanoliter osmometer: thermal hysteresis and dynamic ice shaping (Experiment 1). As to conditions: without antifreeze the crystal is perfectly round, 'Identical images' refers to that, 13: 0.0033 mmole/L in doubly distilled water.
Procedure: FIG. 4 (A) depicts a single ice crystal in the absence of biological antifreeze. Notice that the crystal is perfectly round and has no facets or edges.
AFGP analogues 18a-c were assayed for antifreeze protein-specific activity using nanoliter osmometry and a recrystallization-inhibition assay.

In the case of `OCC1O[C@H](O[C@H]2OC(CO)[C@@H](O)C(O)C2O)C(O)C(O)[C@@H]1O` (stereo partly drawn) [D-trehalose], the “Melting Point” value in data set [1] is −0.015 °C. Consider `OC[C@H]1O[C@@](CO)(O[C@H]2O[C@H](CO)[C@@H](O)[C@H](O)[C@H]2O)[C@@H](O)[C@@H]1O` [sucrose], for which, in data set [2] (0.022 M in PBS solution), the “RI activity (in words)” value is reported as “little effect upon recrystallization”. For the molecule `OCC1O[C@H](O[C@@H]2C(CO)O[C@@H](O)C(O)C2O)C(O)C(O)[C@@H]1O` (stereo partly shown), in data set [3], the “Molar Compressibility (K2°(s)x10^4)” value is −23.7 cm^3 mol^−1 bar^−1. On to `OCC1O[C@@H](O)C(O)[C@@H](O)[C@H]1O` (stereo partly drawn) [D-galactose], for which, in data set [1], the “Melting Point” value was −0.069 °C. In addition, the “RI activity (in words)” value is “inhibit recrystallization as well as a 3% DMSO solution” in data set [2] (0.022 M in PBS solution); “as efficient at inhibiting recrystallization as a 3% (v/v) DMSO solution; also recorded: possesses the most RI activity” in data set [2] (0.022 M in PBS solution, listed as galactose); “RI activity similar to that of a 0.022 M solution” in data set [2] (0.044 M solution in PBS); “effective inhibitor of recrystallization” in data set [2] (0.22 M solution in PBS).

Turning to `OCC1O[C@H](OCC2O[C@@H](O)C(O)C(O)[C@@H]2O)C(O)C(O)[C@H]1O` (stereo partly shown) [melibiose], in data set [1], the “Melting Point” value was −0.17 °C. The “RI activity (in words)” value in data set [2] (0.022 M in PBS solution) is listed as “is the most potent”. For the same molecule, the “Molar Compressibility (K2°(s)x10^4)” value in data set [3] is −31.2 cm^3 mol^−1 bar^−1. Regarding “(L-lysine-glycine-glycine)-6-glycine [peptide control]”, the “RI activity relative to PBS (in words)” value in data set [4] is given as “did not inhibit the growth of ice”. `OCC1O[C@@H](O)C(O)[C@@H](O)[C@@H]1O` (stereo partly drawn) [D-glucose]: the “Melting Point” value in data set [1] is −0.055 °C. Further, the “Molar Compressibility (K2°(s)x10^4)” value in data set [3] was −17.6 cm^3 mol^−1 bar^−1. Consider `N[C@@H](CCCCNC(=O)C[C@H]1OC(CO)[C@H](O)[C@H](O)C1O)C(=O)NCC(=O)NCC(=O)O` (stereo partly shown) [Compound 10], for which, in data set [4], the “RI activity relative to PBS (in words)” value was “do not show any RI activity”. On to `[Cl-].[Na+]` [salt, sodium chloride], for which the “temperature below the melting point at which rapid crystal growth occurred / solution freezes” value in data set [5] was −0.01 °C. Moreover, in data set [6], the “single ice crystal morphology” value is given as “Identical images”. For the molecule `C[S+](C)[O-]` [DMSO, dimethylsulfoxide], the entries for the “RI activity (in words)” value in data set [2] (0.1% (v/v) solution in PBS) and in data set [2] (4% (v/v) solution in PBS) were “failed to inhibit recrystallization” and “produced a significant RI effect”, respectively.

Regarding `OCC1O[C@H](O[C@H]2OC(CO)[C@@H](O)C(O)C2O)C(O)C(O)[C@@H]1O` (stereo partly shown) [drawing 28], the “Molar Compressibility (K2°(s)x10^4)” value in data set [3] is on record as −30.2 cm^3 mol^−1 bar^−1.

As to `OCC1O[C@@H](O)C(O)[C@@H](O)[C@H]1O` (stereo partly shown) [talose], the “Molar Compressibility (K2°(s)x10^4)” value in data set [3] is given as −11.9 cm^3 mol^−1 bar^−1.

For `OCC(O)CO` [glycerol], in data set [5], the “temperature below the melting point at which rapid crystal growth occurred / solution freezes” value was −0.01 °C.
